Experimental data reported in article PMC7144155 (ACS Omega, 2020).
≈ marks a conversion by molar mass, not a printed value. Where “and” joins values, the source holds several entries; their conditions need not be identical. Identical values can stand only once.

Tests used:
traumatic brain injury = details: after traumatic brain injury; cited from earlier work
[1] = system: formalin-injected paw model of pain; details: coadministration 450 μg/paw; P < 0.001; cited from earlier work
[2] = target: T1, human dopamine D3 receptor (hD3R) (Homo sapiens, UniProt P35462); test: GPCR functional assay, agonist effect; assay type: cell-based; details: for % stimulation: D3 (h), % of control response to 300 nM dopamine at 50 μM of anthraquinones
T1 sequence (P35462 whole entry): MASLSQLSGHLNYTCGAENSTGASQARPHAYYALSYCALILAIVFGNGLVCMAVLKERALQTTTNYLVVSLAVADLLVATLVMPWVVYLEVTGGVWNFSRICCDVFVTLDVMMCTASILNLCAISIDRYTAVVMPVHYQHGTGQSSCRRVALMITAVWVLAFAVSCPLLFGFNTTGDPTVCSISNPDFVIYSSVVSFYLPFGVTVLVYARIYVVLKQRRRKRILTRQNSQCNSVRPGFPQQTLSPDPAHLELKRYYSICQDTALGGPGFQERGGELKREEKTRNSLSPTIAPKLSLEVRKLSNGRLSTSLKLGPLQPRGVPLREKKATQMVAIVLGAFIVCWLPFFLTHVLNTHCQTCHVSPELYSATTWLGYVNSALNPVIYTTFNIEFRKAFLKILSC

[3] = target: T2, human dopamine D4 receptor (hD4R) (Homo sapiens, UniProt P21917); test: GPCR functional assay, agonist effect; assay type: cell-based; details: D4 (h); % of control agonist (dopamine) response at 50 μM of anthraquinones
T2 sequence (P21917 1-419): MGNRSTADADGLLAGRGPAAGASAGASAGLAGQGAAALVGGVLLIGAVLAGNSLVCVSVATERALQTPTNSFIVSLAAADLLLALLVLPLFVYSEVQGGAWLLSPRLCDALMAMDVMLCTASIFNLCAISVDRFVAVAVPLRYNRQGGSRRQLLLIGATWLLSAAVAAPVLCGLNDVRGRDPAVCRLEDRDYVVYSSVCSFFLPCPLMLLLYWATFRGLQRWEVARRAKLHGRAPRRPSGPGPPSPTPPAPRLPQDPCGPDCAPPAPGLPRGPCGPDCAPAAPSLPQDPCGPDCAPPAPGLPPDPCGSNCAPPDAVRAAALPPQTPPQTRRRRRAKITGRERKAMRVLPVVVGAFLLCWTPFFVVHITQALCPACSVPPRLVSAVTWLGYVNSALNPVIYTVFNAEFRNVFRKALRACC

acetylcholinesterase = details: cited from earlier work
[4] = target: T2, human dopamine D4 receptor (hD4R); test: GPCR functional assay, antagonist effect; assay type: cell-based; details: for inhibition at 50 µM: CHO
[5] = target: T3, human vasopressin V1A receptor (hV1AR) (Homo sapiens, UniProt P37288); test: GPCR functional assay, agonist effect; assay type: cell-based; details: for % stimulation: V1A (h), % of control response to 1 μM AVP at 50 μM of anthraquinones; for agonist response at hV1AR (in words): up to 50 μM
T3 sequence (P37288 whole entry): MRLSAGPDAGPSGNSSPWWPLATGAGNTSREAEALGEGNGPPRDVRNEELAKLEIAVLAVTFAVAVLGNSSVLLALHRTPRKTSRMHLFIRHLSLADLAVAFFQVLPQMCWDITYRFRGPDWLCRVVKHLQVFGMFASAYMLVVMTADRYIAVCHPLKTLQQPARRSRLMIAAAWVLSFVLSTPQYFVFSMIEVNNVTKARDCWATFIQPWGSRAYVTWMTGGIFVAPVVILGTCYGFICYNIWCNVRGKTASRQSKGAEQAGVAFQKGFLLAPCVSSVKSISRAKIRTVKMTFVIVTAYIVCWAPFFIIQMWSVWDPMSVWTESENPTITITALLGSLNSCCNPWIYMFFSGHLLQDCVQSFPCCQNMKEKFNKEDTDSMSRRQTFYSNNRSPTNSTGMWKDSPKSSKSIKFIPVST

[6] = target: T4, human 5-HT1A receptor (h5-HT1AR) (Homo sapiens, UniProt P08908); test: GPCR functional assay, agonist effect; assay type: cell-based; details: 5-HT1A (h); % of control response to serotonin (2.5 μM) at 50 μM of anthraquinones
T4 sequence (P08908 1-422): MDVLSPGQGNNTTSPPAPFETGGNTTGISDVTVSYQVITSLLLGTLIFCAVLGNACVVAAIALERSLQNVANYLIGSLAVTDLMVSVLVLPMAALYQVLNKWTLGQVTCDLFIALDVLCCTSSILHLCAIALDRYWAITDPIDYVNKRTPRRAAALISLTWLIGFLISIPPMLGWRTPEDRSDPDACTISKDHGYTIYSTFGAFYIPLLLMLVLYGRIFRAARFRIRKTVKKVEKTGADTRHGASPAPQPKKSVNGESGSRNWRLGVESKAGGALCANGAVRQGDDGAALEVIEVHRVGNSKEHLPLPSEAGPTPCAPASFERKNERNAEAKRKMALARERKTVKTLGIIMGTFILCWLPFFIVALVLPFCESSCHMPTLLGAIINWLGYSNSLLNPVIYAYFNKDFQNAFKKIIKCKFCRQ

[7] = target: T1, human dopamine D3 receptor (hD3R); test: GPCR functional assay, antagonist effect; assay type: cell-based; details: for % inhibition: D3 (h), % inhibition of control response to 10 nM dopamine at 50 μM of anthraquinones
U87MG cells = details: 20 and 40 μM; cited from earlier work
[8] = target: T5, human dopamine D1 receptor (hD1R) (Homo sapiens, UniProt P21728); test: GPCR functional assay, antagonist effect; assay type: cell-based; details: CHO
T5 sequence (P21728 whole entry): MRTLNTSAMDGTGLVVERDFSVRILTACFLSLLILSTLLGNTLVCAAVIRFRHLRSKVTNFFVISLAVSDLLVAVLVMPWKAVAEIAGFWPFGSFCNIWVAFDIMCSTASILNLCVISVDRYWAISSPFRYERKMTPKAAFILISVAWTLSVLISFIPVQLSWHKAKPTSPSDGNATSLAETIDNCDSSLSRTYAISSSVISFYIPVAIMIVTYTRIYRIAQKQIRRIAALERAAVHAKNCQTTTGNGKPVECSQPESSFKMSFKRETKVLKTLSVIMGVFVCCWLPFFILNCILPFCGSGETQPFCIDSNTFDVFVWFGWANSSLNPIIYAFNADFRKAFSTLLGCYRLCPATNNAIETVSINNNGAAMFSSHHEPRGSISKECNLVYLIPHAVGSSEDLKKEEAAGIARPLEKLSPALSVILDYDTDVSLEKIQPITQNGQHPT

[9] = system: human glioblastoma U87MG-implanted nude CG1 mice; details: i.p. 50 mg/(kg day) for 15 days; decreasing Ki67 positive cells; cited from earlier work
[10] = target: T5, human dopamine D1 receptor (hD1R); test: GPCR functional assay, agonist effect; assay type: cell-based; details: D1 (h); % of control agonist (dopamine) response at 50 μM of anthraquinones
[11] = target: T3, human vasopressin V1A receptor (hV1AR); test: cell-based
[12] = target: T4, human 5-HT1A receptor (h5-HT1AR); test: GPCR functional assay, antagonist effect; assay type: cell-based; details: for % inhibition: 5-HT1A (h), % inhibition of control response to 30 nM serotonin at 50 μM of anthraquinones
[13] = system: cerebral ischemia/reperfusion (I/R) model rats; details: intraperitoneal injection, 25 g/(kg day); cited from earlier work
[14] = 20 and 40 mg/kg, rapid phase II metabolism to glucuronide; cited from earlier work
[15] = system: cycloheximide-induced amnesia in rats; details: cited from earlier work
[16] = system: human epidermoid carcinoma A431 cell; details: 100 μM, 4 nM (−)-epinephrine, 2 μM nicotinic acid, 8 μM histamine; cited from earlier work

Structure (SMILES) | % stimulation [2] | % stimulation [3] | inhibition at 50 µM [4] [%] | % stimulation [5] | agonist response at hV1AR (in words) [5] | % stimulation [6] | % inhibition [7] [%] | inhibition at 50 µM [8] [%] | % stimulation [10] | effect on hV1AR (in words) [11] | antagonist effect on h5-HT1AR (in words) [12] | % inhibition [12] [%] | also measured
COc1ccc(S(=O)(=O)N2c3ccc(Cl)cc3[C@](O)(c3ccccc3Cl)[C@@H]2C(=O)N2CCC[C@H]2C(N)=O)cc1OC [SR49059, (2S)1-{(2R,3S)-5-chloro-3-(2-chloro-phenyl)-1-(3,4-dimethoxybenzene-sulfonyl)-3-hydroxy-2,3-dihydro-1H-indole-2-carbonyl}pyrrolidine-2-carboxamide] | – | – | – | – | – | – | – | – | – | – | – | – | brain edema (traumatic brain injury): prevented brain edema
COc1ccccc1N1CCN(CC(C(=O)NC(C)(C)C)c2ccccc2)CC1 (stereo not drawn) [WAY 100 135] | – | – | – | – | – | – | – | – | – | – | – | – | phase 2 (long lasting) intense flinching behavior [1]: inhibited
O=C1c2cccc(O)c2C(=O)c2c(O)cc(CO)cc21 [aloe-emodin] | –57.95 ± 32.88% | -53.15 ± 7.00% | 25.7 | 7.45 ± 1.20% | did not show any agonist response | 3.45 ± 0.21% | 20.60 ± 6.79 | -47.9 | 0.15 ± 4.45% | did not have any observable effect | remained ineffective | 1.55 ± 3.61 | IC50 (acetylcholinesterase activity) (acetylcholinesterase): 18.37 µg/mL (≈ 68 µM); hD4R antagonist effect (in words) [4]: mild antagonist effect; hD3R antagonist effect (in words) [7]: mild hD3R antagonist effect; cell cycle effect (U87MG cells): induced cell cycle arrest; effect in mouse brain tumour model [9]: showed antiproliferative effect
Cc1cc(O)c2c(c1)C(=O)c1cc(O)cc(O)c1C2=O [emodin] | 75.6% and 75.60 ± 12.87% | 2.35 ± 2.76% | -0.35 | –4.80 ± 0.69% | did not show any agonist response | –3.56 ± 0.21% | −10.8 ± 6.59 | -10.2 | –3.55 ± 0.64% | – | remained ineffective | 18.4 ± 3.89 | EC50 [2]: 21.9 ± 2.66 µM; neurological deficit scores [13]: improved neurological deficit scores; parent form in vivo after oral administration [14]: almost undetectable; cycloheximide-induced amnesia [15]: improved cycloheximide-induced amnesia; effect on agonist-induced dynamic mass redistribution signals [16]: inhibited; IC50 [11]: 10.2 ± 1.97 µM; inhibition at 12.5 µM ([11]; CHO, read-out: inhibition of 10 nM AVP-induced intracellular Ca2+ concentration): > 50%; % inhibition ([11]; V1A (h), % inhibition of control response to 10 nM AVP at 50 μM of anthraquinones): 69.35 ± 1.34%
COc1cc(O)cc2c1C(=O)c1c(O)cc(C)cc1C2=O [questin] | 34.85% and 34.85 ± 0.78% | –38.15 ± 15.91% | 4.5 | –3.40 ± 0.71% | did not show any agonist response | 2.45 ± 0.49% | 1.25 ± 7.42 | 10.9 | –2.10 ± 0.85% | did not have any observable effect | remained ineffective | 0.70 ± 4.10 | hD3R agonist effect (in words) [2]: moderate hD3R agonist effect
